SMILES strings stand for the structures.

The subject of data set [1] is central nervous system. In words: Impairment of motor coordination and righting reflex in mice (hypnotic properties). Format: in vivo. The note with it: Mus musculus, ip, read-out: ED50, Impairment of motor coordination and righting reflex. The procedure:
(§1) Decreasing the spontaneous activity in mice after intraperitoneal administration of an effective amount of the compounds was taken as a measure of the sedative effect, while impairment of motor coordination and righting reflex were related to hypnotic properties. The myorelaxing characteristics were evaluated by considering the body tone, while the anxiety-relieving effect was measured on the basis of the inhibition of the secondary conditioned avoidance response.

Data set [2] has as its system central nervous system. In words: Body tone in mice (myorelaxing characteristics). The format is in vivo. The note with it: Mus musculus, ip, read-out: ED50, Body tone. The procedure: as §1
Data set [3] relates to central nervous system. Put plainly: Inhibition of secondary conditioned avoidance response in mice (anxiety-relieving effect). Format: in vivo. The note with it: Mus musculus, ip, read-out: ED50, Secondary conditioned avoidance response. The procedure: as §1
For data set [4], the system named is central nervous system. In words: Decrease of spontaneous activity in mice (sedative effect). The note with it: Mus musculus, ip, read-out: ED50, Spontaneous activity. The format is in vivo. The procedure:
as §1

A short description of data set [5]: Toxicity, LD50 in mice i.p. The note with it: mouse, in vivo, ip.
Data set [6] in a line: LD50 to which the edema test dose is related. The format is in vivo. The note with it: rats.
Data set [7] relates to carrageenin-induced edema. Put plainly: Carrageenin-induced edema test (anti-inflammatory activity). Format: in vivo. The note with it: 100 mg/kg p.o., rats. The source says:
|Carrageenin-induced edema test
(In general: The carrageenan paw model is a standard test of acute inflammation.)

Usually ED50 stands for the dose that gives a 50% effect, or the effect in half of the subjects. Regarding `CC1NOCCc2ccccc21` (stereo not drawn) [Example 4, 1-Methyl-1,2,4,5-tetrahydro-3,2-benzoxazepine], the ED50 in the data set with central nervous system [1] (i.p. in mice) came to 60 mg/kg; in the data set with central nervous system [2] (i.p. in mice), 20 mg/kg; in the data set on central nervous system [3] (i.p. in mice), 60 mg/kg; with central nervous system [4] (i.p. in mice), 100 mg/kg.

In general, LD50 refers to the dose expected to kill half of the subjects tested. Low readings indicate a more toxic substance, high ones a less toxic substance. Compound `CC1c2ccccc2CCON1C(N)=O` (stereo not drawn) [Example 6, 2-Carbamyl-1-methyl-1,2,4,5-tetrahydro-3,2-benzoxazepine] registered an LD50 in data set [5] greater than 500 mg/kg. The ED50 in the data set on central nervous system [1] (i.p. in mice) was 60 mg/kg; with central nervous system [2] (i.p. in mice), 80 mg/kg; in the data set on central nervous system [3] (i.p. in mice), 15 mg/kg; in the data set on central nervous system [4] (i.p. in mice), 60 mg/kg.

The compound `CC1c2ccccc2CCON1C` (stereo not drawn) [Example 7, 1,2-Dimethyl-1,2,4,5-tetrahydro-3,2-benzoxazepine] displayed an LD50 in data set [5] greater than 500 mg/kg. For the same compound, in data set [6], the “dose of 100 mg/kg per os as fraction of the LD50 value” is “about one-tenth to about one-fifth”. Besides, in data set [7], the “% Decrease of the edema” value is recorded as 30%.

Turning to `NC(=O)OCCN1Cc2ccccc2CCO1` [Example 9, 2-(2-Carbamyloxyethyl)-1,2,4,5-tetrahydro-3,2-benzoxazepine], in data set [5], the LD50 was greater than 500 mg/kg. In addition, the ED50 amounted to 100 mg/kg with central nervous system [1], 300 mg/kg in the data set on central nervous system [2], 30 mg/kg in the data set on central nervous system [3] and 100 mg/kg in the data set with central nervous system [4].

`CCN(CC)C(=O)N1OCCc2ccccc2C1C` (stereo not drawn) [Example 11, 2-Diethylcarbamyl-1-methyl-1,2,4,5-tetrahydro-3,2-benzoxazepine]: the LD50 in data set [5] is greater than 500 mg/kg. In addition, in data set [6], the “dose of 100 mg/kg per os as fraction of the LD50 value” is “about one-tenth to about one-fifth”. Also, the “% Decrease of the edema” value in data set [7] was 31%.

In data set [5], `CC(C)=CC(=O)N1OCCc2ccccc2C1C` (stereo not drawn) [Example 12, 1-Methyl-2-(3-methyl-2-butenoyl)-1,2,4,5-tetrahydro-3,2-benzoxazepine] came in with an LD50 greater than 500 mg/kg.

In data set [5], `CNC(=O)N1OCCc2ccccc2C1C` (stereo not drawn) [Example 15, 1-Methyl-2-methylcarbamyl-1,2,4,5-tetrahydro-3,2-benzoxazepine] gave an LD50 greater than 500 mg/kg. Further, in data set [6], the “dose of 100 mg/kg per os as fraction of the LD50 value” is on record as “about one-tenth to about one-fifth”. Also, in data set [7], the “% Decrease of the edema” value came out at 31.5%.

Turning to `CN1Cc2ccccc2CCO1` [Example 16], the LD50 in data set [5] was greater than 500 mg/kg. Further, the ED50 with central nervous system [1] (i.p. in mice) turned out to be 120 mg/kg; in the data set on central nervous system [2] (i.p. in mice) it was 10 mg/kg; in the data set with central nervous system [3] (i.p. in mice), 40 mg/kg; in the data set with central nervous system [4] (i.p. in mice), 100 mg/kg. Besides, in data set [6], the “dose of 100 mg/kg per os as fraction of the LD50 value” is “about one-tenth to about one-fifth”. The “% Decrease of the edema” value in data set [7] is 30.5%.

For `C=CCN1OCCc2ccccc2C1C` (stereo not drawn) [Example 17], the LD50 in data set [5] was greater than 500 mg/kg.

For the compound `CC(=O)N1OCCc2ccccc2C1C` (stereo not drawn) [Example 18, 2-acetyl-1-methyl-1,2,4,5-tetrahydro-3,2-benzoxazepine], the ED50 in the data set on central nervous system [1] (i.p. in mice) turned out to be 60 mg/kg; in the data set on central nervous system [2] (i.p. in mice), 200 mg/kg; in the data set with central nervous system [3] (i.p. in mice), 60 mg/kg; in the data set on central nervous system [4] (i.p. in mice), 100 mg/kg.

As for `CC1c2ccccc2CCON1C(=O)N1CCOCC1` (stereo not drawn) [Example 24], the LD50 in data set [5] is greater than 500 mg/kg. The “dose of 100 mg/kg per os as fraction of the LD50 value” in data set [6] is “about one-tenth to about one-fifth”. The “% Decrease of the edema” value in data set [7] is reported as 32%.

Values taken from patent US4041048A, “3,2-Benzoxazepine derivatives” (Gruppo Lepetit S.p.A., priority 1971, dated 1977).
